Toxic doses and inconclusive results are not listed. No stated cut-off is given here; in the data, active means T/C of 150% or more; inactive means T/C below 125%.
System: L1210 leukemia ip in BDF1 mice, survival T/C
Test: NCI In Vivo Anticancer Drug Screen. Data for tumor model L1210 Leukemia (intraperitoneal) in B6D2F1 (BDF1) mice
Settings: endpoint: mean survival time, higher = longer survival
In short: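 Value reflects the ratio of survival in compound-treated mice to survival in vehicle-treated controls, with both groups carrying the same transplanted tumor.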

Measured: T/C

COC(=O)c1ccccc1NC(=S)NC(=O)c1ccc(OC)cc1
inactive: dose: 100.0 mg/kg/injection, schedule: Q01DX009 (ip), vehicle: Klucel (hydroxypropylcellulose) (HPC) 93 % of control | dose: 100.0 mg/kg/injection, schedule: Q04DX003 (ip), vehicle: Klucel (hydroxypropylcellulose) (HPC) 91 % of control | dose: 200.0 mg/kg/injection, schedule: Q01DX009 (ip), vehicle: Klucel (hydroxypropylcellulose) (HPC) 98 % of control | dose: 200.0 mg/kg/injection, schedule: Q04DX003 (ip), vehicle: Klucel (hydroxypropylcellulose) (HPC) 104 % of control | dose: 400.0 mg/kg/injection, schedule: Q01DX009 (ip), vehicle: Klucel (hydroxypropylcellulose) (HPC) 95 % of control | dose: 400.0 mg/kg/injection, schedule: Q04DX003 (ip), vehicle: Klucel (hydroxypropylcellulose) (HPC) 96 % of control

COC1(c2ccc(Cl)cc2)OC(=O)C(c2ccccc2)=C1Cc1ccccc1 (stereo not given)
inactive: dose: 12.5 mg/kg/injection, schedule: Q01DX009 (ip), vehicle: saline with Tween-80 93 % of control | dose: 25.0 mg/kg/injection, schedule: Q01DX009 (ip), vehicle: saline with Tween-80 89 % of control | dose: 50.0 mg/kg/injection, schedule: Q01DX009 (ip), vehicle: saline with Tween-80 100 % of control

CNC(=O)Oc1c(C)occc1=O
inactive: dose: 75.0 mg/kg/injection, schedule: Q01DX009 (ip), vehicle: other 100 % of control | dose: 75.0 mg/kg/injection, schedule: Q01DX009 (ip), vehicle: saline with Tween-80 103 % of control | dose: 100.0 mg/kg/injection, schedule: Q01DX001 (ip), vehicle: saline 106 % of control | dose: 135.0 mg/kg/injection, schedule: Q01DX009 (ip), vehicle: other 111 % of control | dose: 150.0 mg/kg/injection, schedule: Q01DX009 (ip), vehicle: other 104 % of control | dose: 150.0 mg/kg/injection, schedule: Q01DX009 (ip), vehicle: saline with Tween-80 111 % of control | dose: 200.0 mg/kg/injection, schedule: Q01DX001 (ip), vehicle: saline 101 % of control | dose: 200.0 mg/kg/injection, schedule: Q01DX009 (ip), vehicle: other 108 % of control | dose: 300.0 mg/kg/injection, schedule: Q01DX009 (ip), vehicle: other 116 % of control | dose: 300.0 mg/kg/injection, schedule: Q01DX009 (ip), vehicle: saline with Tween-80 106 % of control | dose: 400.0 mg/kg/injection, schedule: Q01DX001 (ip), vehicle: saline 105 % of control
